The experiment deals with Sodium-dependent dopamine transporter (Rattus norvegicus, UniProt P23977). In words: Compound was tested for inhibitory activity to displace [3H]WIN-35428 at dopamine transporter in Rat Striatal Membranes.

This note sets out measurements from ChEMBL document CHEMBL1130389, “Synthesis and ligand binding studies of 4'-iodobenzoyl esters of tropanes and piperidines at the dopamine transporter” (J Med Chem, 1997).

The term IC50 denotes the point on the concentration scale where inhibition reaches its midpoint. High values mean weaker potency, low ones greater potency.

Sequence of Sodium-dependent dopamine transporter (P23977 whole entry): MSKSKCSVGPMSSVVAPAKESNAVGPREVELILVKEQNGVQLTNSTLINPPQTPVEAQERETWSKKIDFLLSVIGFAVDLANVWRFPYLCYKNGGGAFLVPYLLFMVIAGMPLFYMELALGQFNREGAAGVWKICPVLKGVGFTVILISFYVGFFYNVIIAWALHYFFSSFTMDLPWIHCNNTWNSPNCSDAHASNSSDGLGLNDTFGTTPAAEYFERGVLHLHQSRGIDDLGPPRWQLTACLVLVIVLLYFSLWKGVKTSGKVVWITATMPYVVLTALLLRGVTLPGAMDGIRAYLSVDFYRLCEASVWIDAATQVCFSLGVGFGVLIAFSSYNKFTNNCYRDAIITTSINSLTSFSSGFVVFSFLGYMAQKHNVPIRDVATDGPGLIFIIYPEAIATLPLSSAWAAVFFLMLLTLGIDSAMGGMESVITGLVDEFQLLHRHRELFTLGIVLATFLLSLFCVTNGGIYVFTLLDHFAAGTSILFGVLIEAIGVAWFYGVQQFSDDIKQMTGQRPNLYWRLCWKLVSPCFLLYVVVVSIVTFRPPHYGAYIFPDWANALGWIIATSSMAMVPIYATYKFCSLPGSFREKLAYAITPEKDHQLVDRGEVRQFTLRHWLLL

For the compound `COC(=O)[C@H]1[C@@H](OC(=O)c2ccc(I)cc2O)C[C@H]2CC[C@H]1N2C`, the IC50 was 215 nM. With `COC(=O)[C@H]1[C@@H](OC(=O)c2ccccc2O)C[C@H]2CC[C@H]1N2C` the figure was 25.2 nM; with `COC(=O)[C@H]1[C@@H](OC(=O)c2ccccc2OC(C)=O)CC2CC[C@H]1N2C`, 69.5 nM; with `COC(=O)[C@@H]1C2CC[C@H](C[C@@H]1OC(=O)c1ccc(O)cc1)N2C`, 153 nM. With `COC(=O)[C@@H]1C2CC[C@H](C[C@@H]1OC(=O)c1cccc(O)c1)N2C` the figure was 1180 nM; with `COC(=O)C1CN(C)CC[C@@H]1OC(=O)c1ccc(I)cc1` (some centres not stated), 8060 nM; with `CN1CCC(OC(=O)c2ccc(I)cc2)CC1`, 11600 nM.
